From PubChem BioAssay (NCI)
Several values for one entry are separate records, joined by “and”; a condition that tells them apart may be missing. Equal entries are not always repeated.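 In this assay, cells in 96-well plates receive the compound at five concentrations for 48 hours. Endpoints are linearly interpolated between the surrounding concentrations. GI50 is the concentration that inhibits growth by half. TGI: total growth inhibition.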

Tested on: 786-0 renal
Test: growth of human tumour cells (NCI), 48 h

Cc1nc2sccn2c1-c1nc2sccn2c1/C=C1/C(=O)Nc2ccccc21 and O=C(Nc1nc(-c2c[nH]c3ccccc23)cs1)c1n[nH]c(=O)c2ccccc12 are within 1.5-fold of each other in GI50: 1.79 µM for the first, 1.48 µM for the second.

Going from Cc1cccc(NC2=C(Cl)C(=O)c3nc(C)ccc3C2=O)c1 to CCN(Cc1c(F)cccc1OC)c1ccc(CO)c(Cl)c1, the GI50 rises from 1.79 µM to 16.7 µM (9.3-fold).

Compared with COc1cc2c(cc1OCCCN1CCN(CCCOc3cc4c(cc3OC)C(=O)N3CC(F)(F)C[C@H]3C=N4)CC1)N=C[C@@H]1CC(F)(F)CN1C2=O, COC(=O)C1=CN(CC2=CC(=O)C(C)=CC2=O)C=C(C(=O)OC)C1c1ccccc1OC is 4.8-fold higher in GI50: 3.17 µM for the first, 15.1 µM for the second.

Going from COc1cccc2c1O/C(=C\c1ccc([N+](=O)[O-])s1)C2=O to COc1ccc(CNc2c3ccccc3nc3ccccc23)cc1F, the GI50 falls from greater than 20.6 µM to 3.6 µM.

Compared with COC(=O)/C=C/c1cc(OC(C)=O)c2c(c1)C(C(=O)OC)C(c1ccc(OC(C)=O)c(OC(C)=O)c1)O2 (stereo not drawn), NC(=O)c1cc(I)ccc1NC(=O)/C=C/c1ccccc1 is 2.7-fold higher in GI50: 0.488 µM for the first, 1.32 µM for the second.

Going from C=C(C)C(C1C=C(CCC(C=O)=C(C)C)C(=O)O1)C1(OC)C=C(C)C(=O)O1 (stereo not drawn) to CCOC(=O)c1c(C)c2c(n1Cc1ccccc1)CSCC2=O, the GI50 falls from greater than 100 µM to 24.1 µM.

Compared with CCOC(=O)Nc1c(C)nc2ccccn12, NC(=S)N/N=C/c1ncccc1O is lower in GI50: greater than 100 µM for the first, 0.348 µM for the second.

Going from C=C(CN(C)Cc1ccccc1)c1ccc(NC(=O)c2ccc(C(=C)CN(C)Cc3ccccc3)cc2)cc1 to O=C(Nc1ncc(Cc2cccc(C(F)(F)F)c2)s1)c1ccc2c(c1)OCCO2, the GI50 falls from 25.6 µM to 0.576 µM (44-fold).

C=CC12CCN(CC1)C(C(O)c1ccnc3ccc(OC)cc13)C2 (stereo not drawn) and CN(C)CCN1CCC(Cc2ccccc2)CC1 cannot be ordered by GI50: greater than 100 µM for the first, greater than 80 µM for the second.

First: Cc1nc2sccn2c1-c1nc2sccn2c1/C=C1/C(=O)Nc2ccccc21
Second: O=C(Nc1nc(-c2c[nH]c3ccccc23)cs1)c1n[nH]c(=O)c2ccccc12
The TGI of the first is lower: 24.7 µM for the first, greater than 47.5 µM for the second.

First: Cc1cccc(NC2=C(Cl)C(=O)c3nc(C)ccc3C2=O)c1
Second: CC(C)=CCC1=C(O)c2ccccc2C(=O)C1=O
The TGI of the first is lower: 3.36 µM for the first, greater than 100 µM for the second.

Compared with COc1cc2c(cc1OCCCN1CCN(CCCOc3cc4c(cc3OC)C(=O)N3CC(F)(F)C[C@H]3C=N4)CC1)N=C[C@@H]1CC(F)(F)CN1C2=O, COc1cc2c3c(n(C)c(=O)c2cc1OC)-c1cc2c(cc1C3=O)OCO2 is higher in TGI: 10.8 µM for the first, greater than 77.7 µM for the second.

First: CCCCCCCCSC1=C(Cl)C(=O)C(OC)=C(OC)C1=O
Second: CCOC(=O)c1c(C)c2c(n1Cc1ccccc1)CSCC2=O
The TGI of the first is 2.1-fold lower: 30 µM for the first, 63.1 µM for the second.

Compared with COC(=O)C1=CN(CC2=CC(=O)C(C)=CC2=O)C=C(C(=O)OC)C1c1ccccc1OC, COc1ccc(/C=C\c2cc(OC)c(OC)c(OC)c2)cc1OCC(=O)O is higher in TGI: 28.9 µM for the first, greater than 100 µM for the second.

Compared with COc1cccc2c1O/C(=C\c1ccc([N+](=O)[O-])s1)C2=O, CCN(Cc1c(F)cccc1OC)c1ccc(CO)c(Cl)c1 is lower in TGI: greater than 100 µM for the first, 38.9 µM for the second.

COC(=O)/C=C/c1cc(OC(C)=O)c2c(c1)C(C(=O)OC)C(c1ccc(OC(C)=O)c(OC(C)=O)c1)O2 (stereo not drawn) and NC(=O)c1cc(I)ccc1NC(=O)/C=C/c1ccccc1 cannot be ordered by TGI: greater than 56.8 µM for the first, greater than 68.1 µM for the second.

C=C(C)C(C1C=C(CCC(C=O)=C(C)C)C(=O)O1)C1(OC)C=C(C)C(=O)O1 (stereo not drawn) and C=CC12CCN(CC1)C(C(O)c1ccnc3ccc(OC)cc13)C2 (stereo not drawn) cannot be ordered by TGI: greater than 100 µM for the first, greater than 100 µM for the second.

Compared with CCOC(=O)Nc1c(C)nc2ccccn12, O=C(CNc1ccc(Cl)cc1Cl)Nn1c(-c2ccccc2)nc2ccccc2c1=O is lower in TGI: greater than 100 µM for the first, 35.1 µM for the second.

Compared with O=[N+]([O-])c1ccccc1N=Nc1c(O)[nH]c2c(Cl)cc(Cl)cc12, COc1ccc(CNc2c3ccccc3nc3ccccc23)cc1F is 2.8-fold lower in TGI: 39 µM for the first, 13.7 µM for the second.

C=C(CN(C)Cc1ccccc1)c1ccc(NC(=O)c2ccc(C(=C)CN(C)Cc3ccccc3)cc2)cc1 and O=C(CC(=O)Nc1ccccc1)NNC(Sc1ccccc1)c1cc(N=Nc2ccc(Br)cc2)ccc1O (stereo not drawn) cannot be ordered by TGI: 65.4 µM for the first, greater than 10 µM for the second.

First: Cc1cc(C(=O)CSC(=S)SC(C)(C)C)ccc1Cl
Second: O=C(Nc1ncc(Cc2cccc(C(F)(F)F)c2)s1)c1ccc2c(c1)OCCO2
The TGI of the first is lower: 74.4 µM for the first, greater than 100 µM for the second.

Compound CN(C)CCN1CCC(Cc2ccccc2)CC1 has a TGI greater than 80 µM.

CC(C)=CCC1=C(O)c2ccccc2C(=O)C1=O was tested, and the GI50 was > 100 µM and 21.6 µM and 26.1 µM.
For CCn1cc(-c2ccnc3[nH]c(-c4cccc(CN(C)C)c4)cc23)c(-c2ccc(NC(=O)N(C)C)cc2)n1, the GI50 was 2.79 µM and 2.59 µM.

In the case of NC(=S)N/N=C/c1ncccc1O, the TGI is reported as 20.3 µM and 8.34 µM.
In the case of CCn1cc(-c2ccnc3[nH]c(-c4cccc(CN(C)C)c4)cc23)c(-c2ccc(NC(=O)N(C)C)cc2)n1, the TGI is reported as 20.3 µM and > 10 µM.

Tested on: SNB-75 CNS
Test: growth of human tumour cells (NCI), 48 h

Cc1nc2sccn2c1-c1nc2sccn2c1/C=C1/C(=O)Nc2ccccc21 and Cc1cccc(NC2=C(Cl)C(=O)c3nc(C)ccc3C2=O)c1 are within 1.5-fold of each other in GI50: 2.38 µM for the first, 2.73 µM for the second.

Going from COc1cc2c(cc1OCCCN1CCN(CCCOc3cc4c(cc3OC)C(=O)N3CC(F)(F)C[C@H]3C=N4)CC1)N=C[C@@H]1CC(F)(F)CN1C2=O to COC(=O)C1=CN(CC2=CC(=O)C(C)=CC2=O)C=C(C(=O)OC)C1c1ccccc1OC, the GI50 rises from 5.52 µM to greater than 100 µM.

With COc1cccc2c1O/C(=C\c1ccc([N+](=O)[O-])s1)C2=O the GI50 was 2.33 µM.

Going from Cc1nc2sccn2c1-c1nc2sccn2c1/C=C1/C(=O)Nc2ccccc21 to Cc1cccc(NC2=C(Cl)C(=O)c3nc(C)ccc3C2=O)c1, the TGI falls from 16 µM to 7.33 µM (2.2-fold).

First: COc1cc2c(cc1OCCCN1CCN(CCCOc3cc4c(cc3OC)C(=O)N3CC(F)(F)C[C@H]3C=N4)CC1)N=C[C@@H]1CC(F)(F)CN1C2=O
Second: COC(=O)C1=CN(CC2=CC(=O)C(C)=CC2=O)C=C(C(=O)OC)C1c1ccccc1OC
The TGI of the first is lower: 21.1 µM for the first, greater than 100 µM for the second.

CCCCCCCCSC1=C(Cl)C(=O)C(OC)=C(OC)C1=O and COc1cccc2c1O/C(=C\c1ccc([N+](=O)[O-])s1)C2=O cannot be ordered by TGI: 46.3 µM for the first, greater than 32.5 µM for the second.
